The source of these data is ChEMBL document CHEMBL5584296, “Discovery of Novel Pyrimidine-Based Derivatives as Nav1.2 Inhibitors with Efficacy in Mouse Models of Epilepsy” (J Med Chem, 2024).

The target of series [1] is T1, Sodium channel protein type 2 subunit alpha (Homo sapiens, UniProt Q99250). The series can be described thus: Inhibition of human Nav1.2 expressed in HEK293 cells assessed as test to control ratio at 10 uM measured after 5 mins by whole cell voltage clamp electrophysiological analysis. The series is classed as cell-based.
Series [2] concerns the target T1, Sodium channel protein type 2 subunit alpha. The series can be described thus: Inhibition of human Nav1.2 expressed in HEK293 cells assessed as test to control ratio at 1 uM measured after 5 mins by whole cell voltage clamp electrophysiological analysis. The series is classed as cell-based.
For series [3] the target is unchanged. The series is described as follows: Inhibition of human Nav1.2 expressed in HEK293 cells assessed as test to control ratio at 0.1 uM measured after 5 mins by whole cell voltage clamp electrophysiological analysis. The series is classed as cell-based.
For series [4] the target is unchanged. The series is described as follows: Inhibition of human Nav1.2 expressed in HEK293 cells at -40 mv holding potential measured after 5 mins by whole cell voltage clamp electrophysiological analysis. Type of series: cell-based.
Series [5] has the same target. The series is described as follows: Inhibition of human Nav1.2 expressed in HEK293 cells at -120 mv holding potential measured after 5 mins by whole cell voltage clamp electrophysiological analysis. Type of series: cell-based.
The target in series [6] is Sodium channel protein type 1 subunit alpha (Homo sapiens) (UniProt P35498). The series can be described thus: Inhibition of human Nav1.1 expressed in HEK293 cells assessed as test to control ratio at 0.1 uM by whole cell voltage clamp electrophysiological analysis. The series is classed as cell-based.
Series [7] shares this target. The series is described as follows: Inhibition of human Nav1.1 expressed in HEK293 cells assessed as test to control ratio at 1 uM by whole cell voltage clamp electrophysiological analysis. The series is classed as cell-based.
Series [8] deals with T2, Sodium channel protein type 5 subunit alpha (Homo sapiens, UniProt Q14524). The series can be described thus: Inhibition of human Nav1.5 expressed in CHL cells assessed as test to control ratio at 0.1 uM by whole cell voltage clamp electrophysiological analysis. Type of series: cell-based.
T2 sequence (Q14524 whole entry): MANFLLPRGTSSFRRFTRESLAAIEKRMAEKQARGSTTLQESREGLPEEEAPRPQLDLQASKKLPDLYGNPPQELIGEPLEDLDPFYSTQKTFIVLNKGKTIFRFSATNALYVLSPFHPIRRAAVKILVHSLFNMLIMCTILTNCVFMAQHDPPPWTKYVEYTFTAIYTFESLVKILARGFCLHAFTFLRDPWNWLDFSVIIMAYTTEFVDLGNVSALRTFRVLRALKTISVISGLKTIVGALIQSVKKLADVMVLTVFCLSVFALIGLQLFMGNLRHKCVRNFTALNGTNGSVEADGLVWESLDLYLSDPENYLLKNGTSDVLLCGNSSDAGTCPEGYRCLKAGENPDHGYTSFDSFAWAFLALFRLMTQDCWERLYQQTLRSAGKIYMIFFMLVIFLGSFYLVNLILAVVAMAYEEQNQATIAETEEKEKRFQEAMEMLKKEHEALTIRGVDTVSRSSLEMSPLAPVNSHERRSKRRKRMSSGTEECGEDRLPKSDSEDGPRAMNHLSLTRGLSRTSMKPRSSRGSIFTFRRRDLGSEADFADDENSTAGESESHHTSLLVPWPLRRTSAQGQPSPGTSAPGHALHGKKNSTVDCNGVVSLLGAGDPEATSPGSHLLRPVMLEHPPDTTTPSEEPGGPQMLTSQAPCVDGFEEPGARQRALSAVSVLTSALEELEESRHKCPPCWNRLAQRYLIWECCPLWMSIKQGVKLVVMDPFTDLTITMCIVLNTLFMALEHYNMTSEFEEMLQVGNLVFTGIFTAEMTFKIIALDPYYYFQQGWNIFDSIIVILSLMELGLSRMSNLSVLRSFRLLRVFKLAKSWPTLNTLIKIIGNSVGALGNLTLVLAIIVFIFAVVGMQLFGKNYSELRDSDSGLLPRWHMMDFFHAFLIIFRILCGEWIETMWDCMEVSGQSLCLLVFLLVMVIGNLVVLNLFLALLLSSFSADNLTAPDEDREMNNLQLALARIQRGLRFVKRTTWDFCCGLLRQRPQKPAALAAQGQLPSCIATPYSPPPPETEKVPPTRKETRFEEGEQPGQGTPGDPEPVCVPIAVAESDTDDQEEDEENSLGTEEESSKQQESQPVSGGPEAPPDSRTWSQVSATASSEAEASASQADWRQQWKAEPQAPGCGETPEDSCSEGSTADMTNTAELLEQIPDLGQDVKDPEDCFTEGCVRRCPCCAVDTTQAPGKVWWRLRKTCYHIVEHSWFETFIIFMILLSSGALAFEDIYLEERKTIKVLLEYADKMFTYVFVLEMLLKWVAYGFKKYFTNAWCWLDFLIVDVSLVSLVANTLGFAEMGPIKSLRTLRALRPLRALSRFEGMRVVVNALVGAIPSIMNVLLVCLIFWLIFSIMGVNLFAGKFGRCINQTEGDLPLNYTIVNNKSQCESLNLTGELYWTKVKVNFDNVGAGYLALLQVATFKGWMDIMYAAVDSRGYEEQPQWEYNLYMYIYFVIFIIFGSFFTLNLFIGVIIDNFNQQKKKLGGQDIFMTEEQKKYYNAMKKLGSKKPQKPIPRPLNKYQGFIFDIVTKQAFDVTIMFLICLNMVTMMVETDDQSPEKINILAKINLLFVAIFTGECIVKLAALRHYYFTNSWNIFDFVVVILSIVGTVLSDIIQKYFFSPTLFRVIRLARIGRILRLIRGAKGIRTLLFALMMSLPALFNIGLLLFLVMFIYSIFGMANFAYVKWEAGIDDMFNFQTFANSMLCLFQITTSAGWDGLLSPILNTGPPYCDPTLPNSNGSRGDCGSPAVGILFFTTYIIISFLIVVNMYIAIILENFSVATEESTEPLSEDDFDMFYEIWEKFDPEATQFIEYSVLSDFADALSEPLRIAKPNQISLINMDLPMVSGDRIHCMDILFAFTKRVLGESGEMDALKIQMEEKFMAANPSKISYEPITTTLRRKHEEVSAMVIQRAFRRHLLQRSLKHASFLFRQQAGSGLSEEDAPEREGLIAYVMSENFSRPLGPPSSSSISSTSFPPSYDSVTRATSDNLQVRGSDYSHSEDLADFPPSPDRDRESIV
For series [9], the target named is T2, Sodium channel protein type 5 subunit alpha. The series can be described thus: Inhibition of human Nav1.5 expressed in CHL cells assessed as test to control ratio at 1 uM by whole cell voltage clamp electrophysiological analysis. Type of series: cell-based.
Series [10] addresses Sodium channel protein type 8 subunit alpha (Homo sapiens) (UniProt Q9UQD0). The series is described as follows: Inhibition of human Nav1.6 expressed in CHO cells assessed as test to control ratio at 0.1 uM by whole cell voltage clamp electrophysiological analysis. The series is classed as cell-based.
For series [11] the target is unchanged. The series can be described thus: Inhibition of human Nav1.6 expressed in CHO cells assessed as test to control ratio at 1 uM by whole cell voltage clamp electrophysiological analysis. The series is classed as cell-based.
For series [12], the system named is Mus musculus. The series is described as follows: Antiepileptic activity in MES-induced seizure male ICR mouse model assessed as protection against tonic hind limb extension at 5 mg/kg, ip measured after 30 mins relative to control. The series is classed as functional. The settings on record: 0.5 h.
In series [13] the test system is Mus musculus. The series is described as follows: Antiepileptic activity in MES-induced seizure male ICR mouse model assessed as protection against tonic hind limb extension at 15 mg/kg, ip measured after 30 mins relative to control. The series is classed as functional. The settings on record: 0.5 h.
Series [14] has as its system Mus musculus. The series is described as follows: Antiepileptic activity in MES-induced seizure male ICR mouse model assessed as protection against tonic hind limb extension at 25 mg/kg, ip measured after 30 mins relative to control. Type of series: functional. The settings on record: 0.5 h.
In series [15] the test system is Mus musculus. The series can be described thus: Antiepileptic activity in MES-induced seizure male ICR mouse model assessed as protection against tonic hind limb extension administered intraperitoneally for 30 mins. The series is classed as functional. The settings on record: 0.5 h, route ip.
Series [16] relates to Mus musculus. The series is described as follows: Antiepileptic activity in 6 Hz(32 mA)-induced seizure male C57BL mouse model assessed as protection against seizure at 10 mg/kg, ip administered for 30 mins by epilepsy test. Type of series: functional. The settings on record: 0.5 h.
Series [17] has as its system Mus musculus. The series can be described thus: Antiepileptic activity in 6 Hz(32 mA)-induced seizure male C57BL mouse model assessed as protection against seizure at 30 mg/kg, ip administered for 30 mins by epilepsy test. As to conditions: 0.5 h. Type of series: functional.
The test system of series [18] is Mus musculus. The series can be described thus: Antiepileptic activity in 6 Hz(32 mA)-induced seizure male C57BL mouse model assessed as protection against seizure at 5 mg/kg, ip administered for 30 mins by epilepsy test. As to conditions: 0.5 h. The series is classed as functional.
In series [19] the test system is Mus musculus. The series can be described thus: Antiepileptic activity in 6 Hz(32 mA)-induced seizure male C57BL mouse model administered intraperitoneally for 30 mins by epilepsy test. Type of series: functional. As to conditions: 0.5 h, route ip.
Series [20] in a line: Neurotoxicity in male ICR mouse assessed as motor impairment at 30 mg/kg, ip administered for 30 mins by rotarod test relative to control. Type of series: toxicity, organism-based. The settings on record: in vivo, 0.5 h.
The nature of series [21]: Neurotoxicity in male ICR mouse assessed as motor impairment at 35 mg/kg, ip administered for 30 mins by rotarod test relative to control. The series is classed as toxicity, organism-based. The settings on record: in vivo, 0.5 h. (Falling from the rotarod earlier than controls is read as motor impairment.)
A short description of series [22]: Neurotoxicity in male ICR mouse assessed as motor impairment at 37 mg/kg, ip administered for 30 mins by rotarod test relative to control. The series is classed as toxicity, organism-based. As to conditions: in vivo, 0.5 h.
Series [23] in a line: Neurotoxicity in male ICR mouse assessed as motor impairment at 40 mg/kg, ip administered for 30 mins by rotarod test relative to control. Type of series: toxicity, organism-based. The settings on record: in vivo, 0.5 h.
Series [24] can be described thus: Neurotoxicity in male ICR mouse administered intraperitoneally for 30 mins. Type of series: toxicity. The settings on record: in vivo, route ip.
Series [25] deals with T1, Sodium channel protein type 2 subunit alpha. The series is described as follows: Inhibition of human Nav1.2 expressed in HEK293 cells assessed as effect on steady state activation by measuring half activation potential at 0.2 uM (reference value: -36 mV). The series is classed as cell-based.
The target is the same in series [26]. The series is described as follows: Inhibition of human Nav1.2 expressed in HEK293 cells assessed as effect on steady state inactivation by measuring half activation potential at 0.2 uM (reference value: -54 mV). The series is classed as cell-based.
A short description of series [27]: Neurotoxicity in male ICR mouse assessed as motor impairment at 5 mg/kg, ip administered for 30 mins by rotarod test relative to control. Type of series: toxicity, organism-based. The settings on record: in vivo, 0.5 h.
The test system of series [28] is Mus musculus. The series can be described thus: Antiepileptic activity in MES-induced seizure male ICR mouse model assessed as protection against tonic hind limb extension at 10 mg/kg, ip measured after 30 mins relative to control. The series is classed as functional. As to conditions: 0.5 h.
In series [29] the test system is Mus musculus. The series is described as follows: Antiepileptic activity in MES-induced seizure male ICR mouse model assessed as protection against tonic hind limb extension at 20 mg/kg, ip measured after 30 mins relative to control. The series is classed as functional. As to conditions: 0.5 h.
Series [30] has as its system Mus musculus. The series is described as follows: Antiepileptic activity in MES-induced seizure male ICR mouse model assessed as protection against tonic hind limb extension at 30 mg/kg, ip measured after 30 mins relative to control. As to conditions: 0.5 h. The series is classed as functional.
The subject of series [31] is Mus musculus. The series is described as follows: Antiepileptic activity in 6 Hz(32 mA)-induced seizure male C57BL mouse model assessed as protection against seizure at 50 mg/kg, ip administered for 30 mins by epilepsy test. As to conditions: 0.5 h. Type of series: functional.
The nature of series [32]: Neurotoxicity in male ICR mouse assessed as motor impairment at 150 mg/kg, ip administered for 30 mins by rotarod test relative to control. The series is classed as toxicity, organism-based. The settings on record: in vivo, 0.5 h.
Series [33] in a line: Neurotoxicity in male ICR mouse assessed as motor impairment at 250 mg/kg, ip administered for 30 mins by rotarod test relative to control. The settings on record: in vivo, 0.5 h. Type of series: toxicity, organism-based.
Series [34] is described as follows: Neurotoxicity in male ICR mouse assessed as motor impairment at 300 mg/kg, ip administered for 30 mins by rotarod test relative to control. Type of series: toxicity, organism-based. The settings on record: in vivo, 0.5 h.
The target of series [35] is T1, Sodium channel protein type 2 subunit alpha. The series is described as follows: Inhibition of human Nav1.2 expressed in HEK293 cells assessed as effect on steady state activation by measuring half activation potential at 20 uM (reference value: -37 mV). The series is classed as cell-based.
For series [36] the target is unchanged. The series is described as follows: Inhibition of human Nav1.2 expressed in HEK293 cells assessed as effect on steady state inactivation by measuring half activation potential at 20 uM (reference value: -59 mV). Type of series: cell-based.

Broadly, the IC50 is the concentration that inhibits the measured activity by half. A high value points to weaker potency. For orientation: ED50 means the midpoint of the dose-response relation. For orientation: TD50 means the dose at which the toxic effect under study appears in half of the subjects. Higher therefore signals lower toxicity.

Chain of Sodium channel protein type 8 subunit alpha (Homo sapiens) (Q9UQD0 whole entry, looked up): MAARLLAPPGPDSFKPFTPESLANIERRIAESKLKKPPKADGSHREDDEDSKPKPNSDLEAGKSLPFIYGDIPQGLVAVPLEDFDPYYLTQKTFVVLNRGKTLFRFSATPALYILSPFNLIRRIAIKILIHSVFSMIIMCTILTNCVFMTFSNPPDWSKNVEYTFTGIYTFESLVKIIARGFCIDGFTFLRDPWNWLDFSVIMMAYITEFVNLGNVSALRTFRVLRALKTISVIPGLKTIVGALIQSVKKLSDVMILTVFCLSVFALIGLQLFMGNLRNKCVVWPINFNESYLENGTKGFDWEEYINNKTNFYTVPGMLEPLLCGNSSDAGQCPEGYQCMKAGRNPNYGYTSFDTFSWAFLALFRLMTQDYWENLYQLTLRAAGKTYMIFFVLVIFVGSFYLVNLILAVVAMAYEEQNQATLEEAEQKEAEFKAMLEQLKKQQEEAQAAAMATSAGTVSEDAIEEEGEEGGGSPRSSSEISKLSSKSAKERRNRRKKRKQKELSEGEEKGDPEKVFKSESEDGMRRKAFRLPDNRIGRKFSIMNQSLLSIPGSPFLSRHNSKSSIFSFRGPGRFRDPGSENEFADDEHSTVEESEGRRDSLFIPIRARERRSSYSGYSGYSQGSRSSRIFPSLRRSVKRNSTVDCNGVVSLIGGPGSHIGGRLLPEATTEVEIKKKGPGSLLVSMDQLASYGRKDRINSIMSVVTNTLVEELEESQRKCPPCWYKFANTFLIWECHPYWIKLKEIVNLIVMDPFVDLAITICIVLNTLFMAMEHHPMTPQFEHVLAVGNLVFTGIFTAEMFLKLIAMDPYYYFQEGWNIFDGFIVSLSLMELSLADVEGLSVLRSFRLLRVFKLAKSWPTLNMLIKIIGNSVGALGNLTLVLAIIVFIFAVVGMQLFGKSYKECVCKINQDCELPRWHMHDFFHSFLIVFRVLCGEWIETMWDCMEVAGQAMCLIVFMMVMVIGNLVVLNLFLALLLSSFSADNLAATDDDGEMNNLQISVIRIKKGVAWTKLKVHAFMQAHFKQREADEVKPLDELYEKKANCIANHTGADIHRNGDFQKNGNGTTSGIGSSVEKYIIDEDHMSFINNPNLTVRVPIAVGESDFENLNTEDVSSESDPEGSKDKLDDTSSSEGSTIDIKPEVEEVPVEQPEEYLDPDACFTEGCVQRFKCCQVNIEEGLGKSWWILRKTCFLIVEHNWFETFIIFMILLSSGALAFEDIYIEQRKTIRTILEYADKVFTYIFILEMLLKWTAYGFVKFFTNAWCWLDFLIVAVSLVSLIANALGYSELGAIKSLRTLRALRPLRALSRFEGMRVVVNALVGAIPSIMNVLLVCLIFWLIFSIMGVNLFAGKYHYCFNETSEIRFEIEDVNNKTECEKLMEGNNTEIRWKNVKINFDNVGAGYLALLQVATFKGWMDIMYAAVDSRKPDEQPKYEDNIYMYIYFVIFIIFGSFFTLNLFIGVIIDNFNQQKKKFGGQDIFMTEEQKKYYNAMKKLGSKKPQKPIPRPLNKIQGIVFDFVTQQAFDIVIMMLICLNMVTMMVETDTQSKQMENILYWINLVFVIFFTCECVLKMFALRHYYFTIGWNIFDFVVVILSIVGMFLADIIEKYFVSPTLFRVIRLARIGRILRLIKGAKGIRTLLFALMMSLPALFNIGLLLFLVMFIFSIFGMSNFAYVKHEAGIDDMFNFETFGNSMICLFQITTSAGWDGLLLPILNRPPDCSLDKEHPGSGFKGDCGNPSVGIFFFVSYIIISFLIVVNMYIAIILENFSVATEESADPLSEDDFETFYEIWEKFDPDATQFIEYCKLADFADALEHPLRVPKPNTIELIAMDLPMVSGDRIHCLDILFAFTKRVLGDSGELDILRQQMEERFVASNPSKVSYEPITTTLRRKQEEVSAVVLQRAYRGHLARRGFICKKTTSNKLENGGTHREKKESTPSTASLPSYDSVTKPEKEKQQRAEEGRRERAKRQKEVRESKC

As to `COc1cccc(-c2cc(N3CCCc4ccc(C)cc4C3)nc(N)n2)c1`, the T/C in series [1] turned out to be 0; in series [2] it was 0.04; in series [3], 0.39; in series [6], 0.18; in [7] it was 0.02; in series [8], 0.18. Moreover, the T/C in series [9] is 0.07; in series [10], 0.42; in [11], 0.09. The IC50 in series [4] was determined as 65 nM; in [5] it was 158 nM. For the same compound, the Activity worked out at 25% with Mus musculus [12]; 44% in the series with Mus musculus [13]; 88% in the series with Mus musculus [14]; 38% in the series with Mus musculus [16]; 63% with Mus musculus [17]; 13% in the series with Mus musculus [18]. The Activity in series [20] was found to be 38%; in series [21], 63%; in series [22] it was 88%; in series [23] it was 100%. For the same compound, the 50% effective dose (ED50) in the series with Mus musculus [15] came out at 11.1 mg/kg; in the series with Mus musculus [19] it was 18.5 mg/kg. Also, the TD50 at 0.5 h in [24] is 31.9 mg/kg. Moreover, the V1/2 in [25] is -30 mV; in [26] it was -56 mV.
Turning to `CN(C)CCCN1c2ccccc2Sc2ccc(Cl)cc21` [CHLORPROMAZINE], the Activity in [27] was found to be 88%.
In the case of `COc1cccc(-c2cc(N3CC4CC(C3)c3ccccc34)nc(N)n2)c1`, the T/C came to 0.02 in [1]; 0.4 in series [2]; 0.87 in series [3]; 0.93 in series [6]; 0.33 in series [7]; 0.89 in [8]. Further, the T/C in series [9] was found to be 0.37; in [10] it was 0.51; in series [11], 0.1. In addition, the IC50 in series [4] came out at 635 nM; in [5], 21500 nM. Besides, the Activity in the series on Mus musculus [28] is recorded as 38%; in the series on Mus musculus [29] it was 50%; with Mus musculus [30] it was 75%; in the series on Mus musculus [31], 63%; in the series on Mus musculus [16] it was 13%; with Mus musculus [17], 38%. Further, the Activity came to 13% in [32], 38% in series [33] and 88% in series [34]. For the same compound, the ED50 with Mus musculus [15] came to 15.8 mg/kg; in the series on Mus musculus [19] it was 38 mg/kg. For the same compound, the TD50 at 0.5 h in [24] came out at 232 mg/kg. For the same compound, the values for the V1/2 in series [35] and in [36] were -32 mV and -70 mV, respectively.
